The values below come from patent publication US20090263410A1, “USE OF TGF-B1 INHIBITOR PEPTIDES IN THE PREPARATION OF AN IMMUNE RESPONSE MODULATING AGENT” (Proyecto De Biomedicina Cima, S.L., priority 2005, published 2009).

In one assay the test system is RAd-LacZ. The assay can be described thus: Induction of anti-RAd LacZ antibodies (ELISA) after immunization with heat-inactivated adenovirus. Type of assay: in vivo, BALB/c mice. The method, then:
To analyse the immunomodulating effect of peptide p144 on the humoral response, female BALB/c mice (Harlan, Barcelona) were used, of between 6 and 8 weeks old. For the induction of specific antibodies, recombinant adenovirus (RAd-LacZ) inactivated by heat in a bath at 100° C. for 10 minutes was inoculated.
Three mice were immunized per group, by the intraperitoneal of a mixture of 200 μl which contained 1×10^8 pfu of the inactivated RAd-LacZ adenovirus, physiological serum (PS) or with […] of peptide p144, all emulsified in Freund's complete adjuvant (FCA) in a 1:1 volumetric ratio as indicated in table M4. Thirty days after the first immunization, the animals were reimmunized with the same mixture, but emulsified in Freund's incomplete adjuvant (FIA). Blood samples were taken from the retroorbital plexus on days 15 and 45 to quantify the anti-adenovirus antibodies generated in each animal.
In order to study the possible induction of antigen intolerance in the mice treated with p144, on day 50 after the I^st injection, the mice were inoculated intravenously with 4×10^8 pfu of active RAd-LacZ in 100 μl of RPMI-1640, including a new group of mice (cont iv), which had only received the intravenous dose of active LacZ adenovirus. Blood samples were taken after 7 days in all groups. Next, the animals were sacrificed to include liver samples in OCT® (Tissue-Tek®, SAKURA, the Netherlands) to the subsequent evaluation of LacZ expression in the liver.
The detection of antibodies in serum against RAd-LacZ was performed by ELISA assays using Maxisorp® flat-bottomed 96-well plates (Nunc, Roskilde, Denmark), based on the streptavidin-biotin system using 2,2′-azino-bis-3-ethylbenzthiazoline-6-sulphonic acid (ABTS) as developer. The plates were incubated throughout the night at 4° C. with 50 μl per well of a solution of 75 μl of RAd-LacZ 10^10 pfu/ml in 10 ml 0.1 M Na2CO3 (pH=10.5). […] 100 μl per well were added and after one hour the plate was read at 405 nm in a Multiskan Plus MKII reader (Labsystem, Helsinki, Finland).

The next assay deals with CT26 cells. The assay can be described thus: Protection against growth of CT26 cells after immunization with AH1 + LVQ mixtures. The assay is classed as in vivo, BALB/c mice. The settings on record: mice protected/total; immunization mixtures in Freund's incomplete adjuvant; 500,000 CT26 cells subcutaneous. An excerpt:
[…] is a peptide which is presented by the MHC-II on the surface of the presenting cell, and a DTc is a peptide which is presented by MHC-I on the surface of the presenting cell and in tumour cells. It is known that the joint immunization of a DTc (AH1 peptide) and a DTh (LVQ peptide), both peptides coming from the gp70 protein of the tumour antigen expressed by CT26 cells, was capable of protecting against the subcutaneous growth of 500,000 CT26 tumour cells. Since TGF-β1 is important in the immune response induction process, we wanted to study the effect of peptide p144 on the induction of the response responsible for protection against the growth of CT26 cells. As is indicated in Table 1, three groups of BALB/c mice were immunized with the following mixtures of Freund's incomplete adjuvant: (i) with AH1 LVQ, (ii) with AH1+LVQ+p144 and (iii) just with Freund's incomplete adjuvant.

With “p144: peptide inhibiting TGF-β1 whose amino acid sequence corresponds to SEQ ID NO: 1 (TSLDASIIWAMMQN; Synthetic Construct from human TGB-Beta1 type III receptor.Domain730-743)”, the “antibody titer after intravenous infection with active RAd LacZ” value with RAd-LacZ (7 days after 4×10^8 pfu RAd LacZact i.v., no p144 at challenge, versus group immunized without p144) is on record as “approximately equalled”. Also, the “anti-RAd LacZ antibody production after first immunization” value with RAd-LacZ (day 15, RAd LacZinact in presence or absence of p144, ELISA) is recorded as “no quantifiable effect”. The “antibody titer against RAd LacZ after second immunization” value in the assay with RAd-LacZ (p144 50 μg in immunization mixture, versus inactivated RAd LacZ only) was “clearly lower”. Moreover, the “Protection level against the growth of CT26 cells” value in the assay with CT26 cells was “negative effect on protection”.
